In article PMC12348585, “Semi-Synthesis, Anti-Leukemia Activity, and Docking Study of Derivatives from 3α,24-Dihydroxylup-20(29)-en-28-Oic Acid” (Molecules, 2025):

How the values were obtained:
[1] = test system: normal peripheral blood lymphocytes (PBLs); conditions: cited from earlier work
JURKAT cells = conditions: read-out: IC50 in JURKAT cells; cited from earlier work
K562 cells = test system: K562 cells; set-up: method as in PMID 32178533; conditions: cited from earlier work
[2] = test system: leukemia cell lines (CCRF-CEM, REH, JURKAT, MOLT-4, THP-1); assay: Cell viability assay, all leukemia cell lines tested (summary statements); type: cell-based; conditions: 48 h, summary over CCRF-CEM, REH, JURKAT, MOLT-4, THP-1
Description: (§1) Cell lines were cultured in RPMI 1640 medium (Roswell Park Memorial Institute medium) supplemented with 10% fetal bovine serum (FBS) and 1% penicillin–streptomycin. Cultures were maintained at 37 °C in a humidified incubator with 5% CO2. All biological evaluations were performed using cell between passages 3 and 4. All compounds were dissolved in dimethyl sulfoxide (DMSO) at a concentration of 20 mg/mL. In all assays, culture medium containing 0.1% DMSO was used as the negative control, while dasatinib was included as the positive control. Normal mononuclear cells (MNCs) were included as the normal cell control. All experiments were performed in triplicate. Leukemic cell lines and normal mononuclear cells (MNCs) were used to evaluate the cytotoxicity of the compounds. Leukemic cells (1 × 10^5 cells/well) were cultured in 96-well plates and treated with increasing concentrations of compounds (0.02, 0.2, 2.0, and 20 µM) for 48 h. After incubation, both leukemic cells and MNCs were collected, washed with phosphate-buffered saline (PBS), and stained with DAPI (500 ng/mL) for 15 min in darkness, following the manufacturer’s instructions. Fluorescence was analyzed using a FACSVerse flow cytometer (BD Bioscience, San Jose, CA, USA). Flow cytometry data were analyzed using FlowJo^TM software (version 10.9). […] All experiments were performed in triplicate, and results were expressed as means ± standard errors of the means (SEMs). Statical analysis was performed using one-way analysis of variance (ANOVA), followed by Dunnett’s post hoc test to compare treated groups against the control.

[3] = Cell viability assay in normal mononuclear cells; type: cell-based, human; conditions: human
Description: (§2) All compounds were dissolved in dimethyl sulfoxide (DMSO) at a concentration of 20 mg/mL. In all assays, culture medium containing 0.1% DMSO was used as the negative control, while dasatinib was included as the positive control. Normal mononuclear cells (MNCs) were included as the normal cell control. All experiments were performed in triplicate. Normal mononuclear cells (MNCs) were isolated from peripheral blood mononuclear cells obtained from healthy human donors. Cell collection was conducted in accordance with institutional guidelines, including written informed consent from each participant. All procedures were approved by Ethics and Scientific Committee of the Mexican Institute of Social Security (IMSS, ethical approval number: CNIC R-2021-785-025). The MNCs were purified using FicollPaque Plus (Pharmacia Biotech, Uppsala, Sweden) by centrifugation at 400× g for 30 min at room temperature, following the manufacturer’s protocol. The resulting cells were resuspended in RPMI-1640 medium supplemented with 10% fetal bovine serum (FBS) and counted using a hemocytometer after trypan blue staining, confirming a viability of 95% [56]. […] After incubation, both leukemic cells and MNCs were collected, washed with phosphate-buffered saline (PBS), and stained with DAPI (500 ng/mL) for 15 min in darkness, following the manufacturer’s instructions. Fluorescence was analyzed using a FACSVerse flow cytometer (BD Bioscience, San Jose, CA, USA). Flow cytometry data were analyzed using FlowJo^TM software (version 10.9). […] All experiments were performed in triplicate, and results were expressed as means ± standard errors of the means (SEMs). Statical analysis was performed using one-way analysis of variance (ANOVA), followed by Dunnett’s post hoc test to compare treated groups against the control.

REH = assay: Cell viability assay (DAPI, flow cytometry), REH; type: cell-based; conditions: for IC50: Homo sapiens, REH, 48 h, mean ± SEM, N/A: not active
Description: as §1

[4] = test system: peripheral blood mononuclear cells (MNCs); assay: Cell viability assay in normal mononuclear cells; type: cell-based, human
Description: as §2

CCRF-CEM = assay: Cell viability assay (DAPI, flow cytometry), CCRF-CEM; type: cell-based
Description: as §1

THP-1 = assay: Cell viability assay (DAPI, flow cytometry), THP-1; type: cell-based
Description: as §1

JURKAT = assay: Cell viability assay (DAPI, flow cytometry), JURKAT; type: cell-based
Description: as §1

MOLT-4 = assay: Cell viability assay (DAPI, flow cytometry), MOLT-4; type: cell-based
Description: as §1

[5] = ratio of IC50 in the MNC line over IC50 in the leukemia cell line

## C=C(C=O)[C@@H]1CC[C@]2(C)CC[C@]3(C)[C@H](CC[C@@H]4[C@@]5(C)CC[C@H](O)C(C)(C)[C@@H]5CC[C@]43C)[C@@H]12 [3β-hydroxylup-20(29)-en-30-al]
[1]
  reduction of viability of normal peripheral blood lymphocytes (PBLs): 32.17%
JURKAT cells
  IC50: 11.7 ± 1.06 µM
K562 cells
  IC50: 19.5 ± 0.47 µM

## C=C(C)C1CCC2(C(=O)O)CCC3(C)C(CCC4C5(C)CCC(O)C(C)(CO)C5CCC43C)C12 (stereo not drawn) [Compound T1, 3α,24-dihydroxylup-20(29)-en-28-oic acid]
[2]
  IC50 across all leukemia cell lines tested: no activity
[3]
  IC50 at 48 h: > 200 µM

## C=C(C)C1CCC2(C(=O)O)CCC3(C)C(CCC4C5(C)CCC(OC)C(C)(CO)C5CCC43C)C12 (stereo not drawn) [Compound T1a, 3α-methoxy-24-hydroxylup-20(29)-en-28-oic acid]
REH
  IC50: > 20 µM
[4]
  IC50 MNCs: no activity

## C=C(C=O)C1CCC2(C(=O)O)CCC3(C)C(CCC4C5(C)CCC(OC)C(C)(CO)C5CCC43C)C12 (stereo not drawn) [Compound T1b, 3α-methoxy-24-hydroxy-30-oxolup-20(29)-en-28-oic acid]
CCRF-CEM; Homo sapiens, CCRF-CEM, 48 h, mean ± SEM, N/A: not active
  IC50: 6.87 ± 0.6 µM
CCRF-CEM; [5]
  SI: selectivity index, CCRF-CEM: 1.59
THP-1; Homo sapiens, THP-1, 48 h, mean ± SEM, N/A: not active
  IC50: 11.04 ± 0.1 µM
THP-1; [5]
  SI: selectivity index, THP-1: 0.97
REH
  IC50: 9.46 ± 3.2 µM
REH; [5]
  SI: selectivity index, REH: 1.13
[2]; read-out: IC50 across all leukemia cell lines tested
  IC50: 4.05 to 15 µM
JURKAT; Homo sapiens, Jurkat, 48 h, mean ± SEM, N/A: not active
  IC50: 15 ± 1.6 µM
JURKAT; [5]
  SI: selectivity index, JURKAT: 0.72
[3]
  IC50 at 48 h: 10.8 ± 1.3 µM
MOLT-4; Homo sapiens, MOLT-4, 48 h, mean ± SEM, N/A: not active
  IC50: 4.05 ± 0.1 µM
MOLT-4; [5]
  SI: selectivity index, MOLT-4: 2.66
